This is an account of results in ChEMBL document CHEMBL1201862, “PubChem BioAssay data set” (2004).

Some test systems named below: HCT-15; SF-295; IGROV-1; SK-MEL-5; UO-31; KM12; LOX IMVI; UACC-62; U-251; SK-MEL-2; CAKI-1; 786-0; SW-620; SNB-75; COLO 205; SF-539; NCI-H226.
What all share (experiment): inhibition of tumour cell growth, NCI panel, 48 h

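Cells were grown in 96-well plates and exposed to each compound for 48 hours at five concentrations; endpoints were interpolated linearly between bracketing concentrations, or set to the highest concentration if not reached. GI50: concentration for 50% inhibition of growth.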 Activity calls are given as the source filed them. No stated cut-off is given here; in the data, active = GI50 up to about 1.1 µM and inactive = higher.

As for `NC(=O)NC1C(C(N)=O)N(Cc2ccccc2)C(=O)N1Cc1ccccc1` (centres undefined), the GI50 in the assay on HCT-15 was > 100 µM; in the assay on SF-295, > 100 µM (inactive); in the assay with IGROV-1 it was > 100 µM (inactive); with SK-MEL-5, > 100 µM (inactive); in the assay on UO-31 it was > 100 µM (inactive); in the assay on KM12, > 100 µM (inactive). In addition, the GI50 with LOX IMVI, with UACC-62, with U-251, with SK-MEL-2, with CAKI-1 and with 786-0 was > 100 µM (inactive) in each case. Moreover, the GI50 in the assay on SW-620, in the assay with SNB-75, with COLO 205 and in the assay with SF-539 was > 100 µM (inactive) each time.
Take `O=[N+]([O-])c1cccc(C2SCc3nc4ccccc4n32)c1` (centres undefined): the GI50 was 73.5 µM (inactive) in the assay with SF-295; 33 µM (inactive) in the assay with IGROV-1; 19.6 µM (inactive) with SK-MEL-5; 31.6 µM (inactive) in the assay on UO-31; > 100 µM (inactive) with KM12; 88.3 µM (inactive) in the assay with LOX IMVI. The GI50 was 34.3 µM (inactive) in the assay on UACC-62; > 100 µM (inactive) in the assay with U-251; > 100 µM (inactive) in the assay on SK-MEL-2; 21.8 µM (inactive) with CAKI-1; > 100 µM (inactive) in the assay on 786-0; > 100 µM (inactive) with SW-620. Besides, the values for the GI50 with NCI-H226, in the assay with COLO 205 and in the assay on SF-539 were 39.6 µM (inactive), > 100 µM (inactive) and > 100 µM (inactive), respectively.
`Cc1cc(C(=O)NCCN(C)C)c2nc3ccccc3nc2c1`: the GI50 with HCT-15 is 2.9 µM; in the assay on SF-295 it was 4.55 µM (inactive); in the assay with IGROV-1, 4.81 µM (inactive); with SK-MEL-5, 4.44 µM (inactive); in the assay with KM12, 3.91 µM (inactive); with LOX IMVI it was 2.22 µM (inactive). The GI50 in the assay on UACC-62 was 6.32 µM (inactive); with U-251 it was 5.82 µM (inactive); in the assay with SK-MEL-2, 4.33 µM (inactive); in the assay on 786-0 it was 7.8 µM (inactive); with SW-620 it was 1.97 µM (inactive); in the assay with NCI-H226 it was 3.44 µM (inactive). Further, the GI50 was 4.52 µM (inactive) in the assay with SNB-75, 3.08 µM (inactive) in the assay with COLO 205 and 4.31 µM (inactive) in the assay with SF-539.
Regarding `CCCCCCCCCCCC(=O)OCC1OC(n2cc(F)c(=O)[nH]c2=O)C(NC(=O)OCc2ccccc2)C(O)C1O` (centres undefined), the GI50 in the assay with HCT-15 was 19.7 µM; in the assay on SF-295, 27.9 µM (inactive); in the assay with IGROV-1, > 100 µM (inactive); in the assay with SK-MEL-5, 20.3 µM (inactive); in the assay with UO-31, 30.3 µM (inactive); with KM12, 21.3 µM (inactive). The GI50 with LOX IMVI is 18.4 µM (inactive); in the assay with UACC-62, 19.3 µM (inactive); in the assay with U-251, 19 µM (inactive); in the assay on SK-MEL-2, 19.1 µM (inactive); in the assay on CAKI-1, 32.6 µM (inactive); with 786-0, 24 µM (inactive). For the same compound, the GI50 in the assay on SW-620 is 20.6 µM (inactive); with SNB-75, 11.1 µM (inactive); in the assay with COLO 205, 21.2 µM (inactive); with SF-539, 22 µM (inactive).
Consider `COc1cc2c(cc1OC)[C@]1(O)C(=O)c3ccc4c(c3O[C@@H]1CO2)C[C@H](C(C)(C)O)O4`, for which the GI50 was > 100 µM (inactive) in the assay with IGROV-1; 7.29 µM (inactive) in the assay with UO-31; > 100 µM (inactive) with KM12; 11.1 µM (inactive) in the assay with LOX IMVI; > 100 µM (inactive) in the assay on UACC-62; > 100 µM (inactive) in the assay on U-251. In addition, the GI50 was > 100 µM (inactive) with SK-MEL-2; > 100 µM (inactive) in the assay with 786-0; > 100 µM (inactive) with SW-620; 22 µM (inactive) in the assay with SNB-75; > 100 µM (inactive) in the assay with COLO 205; > 100 µM (inactive) in the assay on SF-539.
